Data on 2 molecules can be found in US4559323A, “A41030 Antibiotics” (Eli Lilly and Company, priority 1984, dated 1985).

≈ marks a conversion by molar mass, not a printed value.

For test [1], the system named is Streptococcus sp. (Group D) 9960. The experiment in a line: Disc-plate sensitivity procedure. It counts as cell-based.
In a further test the test system is Escherichia coli EC14. The experiment in a line: Disc-plate sensitivity procedure. It counts as cell-based.
A further test concerns Shigella flexneri. The settings on record: Table 11; Shigella flexneri SH-4. The source says:
(§1) The agar-dilution procedure described by the International Collaborative study (ICS) group was used to determine the minimum inhibitory concentrations (MIC's).

A further test has as its system Citrobacter freundii. The settings on record: Table 17; 24 hours; Citrobacter freundii CF17.
From the text: as §1

Usually MIC stands for the least concentration at which growth counts as inhibited. A higher MIC goes with weaker potency. Regarding `NC1C(=O)NC2Cc3ccc(c(Cl)c3)Oc3cc4cc(c3O)Oc3ccc(cc3Cl)C(O)C3NC(=O)C(NC(=O)C4NC(=O)C(NC2=O)c2cc(O)cc(c2)Oc2cc1ccc2O)c1cc(Cl)c(O)c(c1)-c1c(O)cc(O)cc1C(C(=O)O)NC3=O` (stereo not drawn) [A41030 factor A], the Zone diameter in test [1] (Table 8, 10 μg./disc) is on record as 16.4 mm; in test [1] (Table 8, 100 μg./disc), 20.5 mm; in the test on Escherichia coli EC14 (Table 8, 10 μg./disc), 0 mm; with Escherichia coli EC14 (Table 8, 100 μg./disc) it was 8.0 mm. The same molecule came in with an MIC in the test with Shigella flexneri of 64 µg/mL (≈ 51.9 µM).
In the test with Citrobacter freundii, `N[C@H]1C(=O)N[C@@H]2Cc3ccc(c(Cl)c3)Oc3cc4cc(c3O)Oc3ccc(cc3Cl)[C@@H](O)[C@@H]3NC(=O)C(NC(=O)[C@@H]4NC(=O)[C@@H](NC2=O)c2cc(O)cc(c2)Oc2cc1ccc2O)c1ccc(O)c(c1)-c1c(O)cc(O)cc1[C@@H](C(=O)O)NC3=O` [A41030 factor B] registered an MIC of 128 µg/mL (≈ 107 µM).
